Measurements: ChEMBL document CHEMBL4765295, “Synthesis, pharmacological profile and 2D-QSAR studies of curcumin-amino acid conjugates as potential drug candidates” (Eur J Med Chem, 2020)
Values joined by “and” are separate entries in the source; they are usually repeats but may differ in a detail not shown here. Equal values may be shown once.

Tests used:
Rattus norvegicus [1] = test: Anti-inflammatory activity in Wistar rat assessed as inhibition of carrageenan-induced paw edema at 10 mg/kg, ip pretreated for 1 hr followed by carrageenan challenge and measured after 2 hr relative to control (reference value: 0.00 +/-0.03 %); type: functional; conditions: time 3 hrs
Mus musculus [2] = test: Analgesic activity in albino mouse assessed reduction in acetic acid-induced abdominal writhing by measuring writing reflex at 10 mg/kg, ip pretreated for 1 hr followed by acetic acid challenge and measured starting 5 mins post acetic acid challenge for 10 mins (reference value: 42.4 +/- 1.02); type: functional; conditions: time 75 min, 1.25 h
Splenocyte [3] = test: Immunomodulatory activity in Swiss albino mouse splenocytes assessed as cell viability at 10 uM by measuring stimulation index incubated for 72 hrs in presence of mitogenic stimulus phytohaemagglutinin by MTT assay (reference value: 1.00 +/- 0.24); type: functional
Streptococcus pyogenes = test: Antibacterial activity against Streptococcus pyogenes ATCC 19615 incubated for 18 hrs by agar dilution method; type: functional
Mus musculus [4] = test: Analgesic activity in albino mouse assessed as protection at 10 mg/kg, ip measured after 90 mins by hot plate test (reference value: 0 %); type: functional; conditions: 1.5 h
Staphylococcus aureus = test: Antibacterial activity against Staphylococcus aureus ATCC 25923 incubated for 18 hrs by agar dilution method; type: functional
[5] = Ulcerogenic activity in fasted albino mouse assessed as ulcer index in gastric mucosa at 10 mg/kg, po for 3 days (reference value: 0); type: toxicity, organism-based; conditions: in vivo, 72 h, time 3 day
Salmonella typhimurium = test: Antibacterial activity against Salmonella typhimurium ATCC 19430 incubated for 18 hrs by agar dilution assay; type: functional, Salmonella enterica subsp. enterica serovar Typhimurium; conditions: Salmonella enterica
Peritoneal macrophage [6] = test: Antiinflammatory activity in […] mouse Peritoneal macrophages assessed as reduction in LPS-induced NO production by measuring reduction in stimulation index at 10 uM preincubated for 1 hr followed by LPS stimulation measured after 24 hrs by Griess method (reference value: 27.31 +/- 2.56 uM); type: functional; conditions: time 25 hrs
Rattus norvegicus [7] = test: Antiinflammatory activity in Wistar rat model of carrageenan-induced paw edema assessed as reduction in thickness of paw edema at 10 mg/kg, ip pretreated for 1 hr followed by carrageenan challenge and measured after 3 hrs (reference value: 1.79 +/-0.07 mm); type: functional; conditions: time 4 hrs
Rattus norvegicus [8] = test: Antiinflammatory activity in Wistar rat model of carrageenan-induced paw edema assessed as reduction in thickness of paw edema at 10 mg/kg, ip pretreated for 1 hr followed by carrageenan challenge and measured after 24 hrs (reference value: 0.83 +/-0.08 mm); type: functional; conditions: time 25 hrs
[9] = Toxicity in albino mouse assessed as induction of toxic symptoms at 50 to 100 mg/kg, ip measured after 24 hrs; type: organism-based; conditions: in vivo, dose 50-100 mg/kg
Rattus norvegicus [10] = test: Antiinflammatory activity in Wistar rat model of carrageenan-induced paw edema assessed as reduction in thickness of paw edema at 10 mg/kg, ip pretreated for 1 hr followed by carrageenan challenge and measured after 4 hrs (reference value: 1.40 +/-0.10 mm); type: functional; conditions: time 5 hrs
Mus musculus [11] = test: Analgesic activity in albino mouse assessed as forepaw licking/jumping latency time at 10 mg/kg, ip measured after 60 mins by hot plate test (reference value: 3.42 +/- 0.03 sec); type: functional; conditions: 1 h
Mus musculus [12] = test: Analgesic activity in albino mouse assessed protection against acetic acid-induced abdominal writhing at 10 mg/kg, ip pretreated for 1 hr followed by acetic acid challenge and measured starting 5 mins post acetic acid challenge for 10 mins relative to control (reference value: 0 %); type: functional; conditions: time 75 min, 1.25 h
Rattus norvegicus [13] = test: Antiinflammatory activity in Wistar rat model of carrageenan-induced paw edema assessed as reduction in thickness of paw edema at 10 mg/kg, ip pretreated for 1 hr followed by carrageenan challenge and measured after 1 hr (reference value: 2.41 +/-0.05 mm); type: functional; conditions: time 1 hr after carrageenan
Mus musculus [14] = test: Analgesic activity in albino mouse assessed as forepaw licking/jumping latency time at 10 mg/kg, ip measured after 120 mins by hot plate test (reference value: 2.62 +/- 0.06 sec); type: functional; conditions: 2 h
Peritoneal macrophage [15] = test: Antiinflammatory activity in […] mouse Peritoneal macrophages assessed as inhibition of LPS-induced NO production at 10 uM preincubated for 1 hr followed by LPS stimulation measured after 24 hrs by Griess method relative to control (reference value: 0.0 %); type: functional; set-up: scale not given: the % may be the effect or the level left; conditions: time 25 hrs
Mus musculus [16] = test: Analgesic activity in albino mouse assessed as protection at 10 mg/kg, ip measured after 30 mins by hot plate test (reference value: 0 %); type: functional; conditions: 0.5 h
MCF7 = test: Antiproliferative activity against human MCF7 cells assessed as inhibition of cell growth after 72 hrs by MTT assay; type: functional, cell-based; conditions: MCF7, 72 h
Pseudomonas aeruginosa = test: Antibacterial activity against Pseudomonas aeruginosa ATCC 27853 incubated for 18 hrs by agar dilution assay; type: functional
Mus musculus [17] = test: Analgesic activity in albino mouse assessed as protection at 10 mg/kg, ip measured after 120 mins by hot plate test relative to indomethacin; type: functional; conditions: 2 h
Rattus norvegicus [18] = test: Anti-inflammatory activity in Wistar rat assessed as inhibition of carrageenan-induced paw edema at 10 mg/kg, ip pretreated for 1 hr followed by carrageenan challenge and measured after 24 hr relative to control (reference value: 0.00 +/-0.3 %); type: functional; conditions: time 25 hrs
[19] = Ulcerogenic activity in fasted albino mouse assessed as average severity of ulcers in gastric mucosa at 10 mg/kg, po for 3 days (reference value: 0); type: toxicity, organism-based; conditions: in vivo, 72 h, time 3 day
PC-3 = test: Antiproliferative activity against human PC3 cells assessed as inhibition of cell growth after 72 hrs by MTT assay; type: functional, cell-based; conditions: PC-3, 72 h
Candida albicans = test: Antifungal activity against Candida albicans incubated for 18 to 24 hrs by CLSI method; type: functional; conditions: time 18-24 hrs
Rattus norvegicus [20] = test: Antiinflammatory activity in Wistar rat model of carrageenan-induced paw edema assessed as reduction in thickness of paw edema at 10 mg/kg, ip pretreated for 1 hr followed by carrageenan challenge and measured after 2 hrs (reference value: 2.06 +/-0.09 mm); type: functional; conditions: time 3 hrs
[21] = Ulcerogenic activity in fasted albino mouse assessed as average number of ulcers in gastric mucosa at 10 mg/kg, po for 3 days (reference value: 0); type: toxicity, organism-based; conditions: in vivo, 72 h, time 3 day
Splenocyte [22] = test: Immunomodulatory activity in Swiss albino mouse splenocytes assessed as cell viability at 10 uM by measuring inhibition of stimulation index incubated for 72 hrs in presence of mitogenic stimulus phytohaemagglutinin by MTT assay relative to indomethacin; type: functional; conditions: read-out: Activity
Rattus norvegicus [23] = test: Anti-inflammatory activity in Wistar rat assessed as inhibition of carrageenan-induced paw edema at 10 mg/kg, ip pretreated for 1 hr followed by carrageenan challenge and measured after 1 hr relative to control (reference value: 0.00 +/-0.02 %); type: functional; conditions: time 2 hrs
Mus musculus [24] = test: Analgesic activity in albino mouse assessed as forepaw licking/jumping latency time at 10 mg/kg, ip measured after 30 mins by hot plate test (reference value: 5.02 +/- 0.09 sec); type: functional; conditions: 0.5 h
Mus musculus [25] = test: Analgesic activity in albino mouse assessed protection against acetic acid-induced abdominal writhing at 10 mg/kg, ip pretreated for 1 hr followed by acetic acid challenge and measured starting 5 mins post acetic acid challenge for 10 mins relative to indomethacin; type: functional; conditions: time 75 min, 1.25 h
Mus musculus [26] = test: Analgesic activity in albino mouse assessed as protection at 10 mg/kg, ip measured after 60 mins by hot plate test (reference value: 0 %); type: functional; conditions: 1 h
Rattus norvegicus [27] = test: Anti-inflammatory activity in Wistar rat assessed as inhibition of carrageenan-induced paw edema at 10 mg/kg, ip pretreated for 1 hr followed by carrageenan challenge and measured after 4 hr relative to control (reference value: 0.00 +/-0.4 %); type: functional; conditions: time 5 hrs
Mus musculus [28] = test: Analgesic activity in albino mouse assessed as protection at 10 mg/kg, ip measured after 120 mins by hot plate test (reference value: 0 %); type: functional; conditions: 2 h
Mus musculus [29] = test: Analgesic activity in albino mouse assessed as forepaw licking/jumping latency time at 10 mg/kg, ip measured after 90 mins by hot plate test (reference value: 2.72 +/- 0.01 sec); type: functional; conditions: 1.5 h
Rattus norvegicus [30] = test: Anti-inflammatory activity in Wistar rat assessed as inhibition of carrageenan-induced paw edema at 10 mg/kg, ip pretreated for 1 hr followed by carrageenan challenge and measured after 4 hr relative to indomethacin; type: functional; conditions: time 5 hrs
Rattus norvegicus [31] = test: Anti-inflammatory activity in Wistar rat assessed as inhibition of carrageenan-induced paw edema at 10 mg/kg, ip pretreated for 1 hr followed by carrageenan challenge and measured after 3 hr relative to control (reference value: 0.00 +/-0.1 %); type: functional; conditions: time 4 hrs
A549 = test: Antiproliferative activity against human A549 cells assessed as inhibition of cell growth after 72 hrs by MTT assay; type: functional, cell-based; conditions: A549, 72 h
[32] = Ulcerogenic activity in fasted albino mouse assessed as incidence of gastric ulceration at 10 mg/kg, po for 3 days (reference value: 0 %); type: toxicity, organism-based; conditions: in vivo, 72 h, time 3 day

MIC (Streptococcus pyogenes)	MIC (Staphylococcus aureus)	MIC (Salmonella typhimurium)	IC50 (MCF7) [µM]	SMILES	inhibition in vivo at 10 mg/kg (Rattus norvegicus [1]) [%]	Activity (Mus musculus [2])	Activity_index (Splenocyte [3])	Activity (Mus musculus [4]) [%]	UI [5]	Activity (Peritoneal macrophage [6]) [µM]	Activity (Rattus norvegicus [7]) [mm]	Activity (Rattus norvegicus [8]) [mm]	Activity [9]	Activity (Rattus norvegicus [10]) [mm]	Time (Mus musculus [11]) [s]	Activity (Mus musculus [12]) [%]	Activity (Rattus norvegicus [13]) [mm]	Time (Mus musculus [14]) [s]	Activity (Peritoneal macrophage [15]) [%]	Activity (Mus musculus [16]) [%]	further results
1 µg/mL and 1.71 µM	1 µg/mL and 1.71 µM	1 µg/mL and 1.71 µM	9.36	COc1cc(/C=C/C(=O)/C=C(O)/C=C/c2ccc(OC(=O)CCN)c(OC)c2)ccc1OC(=O)CCN.Cl.Cl	71	25.6	1.39	52.9	0	15.93	0.42	0.23	Non-Toxic	0.16	5.2	39.6	0.74	3.56	41.68	8.8	MIC (Pseudomonas aeruginosa): 1 µg/mL and 1.71 µM; Activity (Mus musculus [17]): 85.5%; inhibition in vivo at 10 mg/kg (Rattus norvegicus [18]): 72%; Activity [19]: 0; IC50 (PC-3): 30.2 µM; MIC (Candida albicans): 0.5 µg/mL and 0.857 µM; Activity (Rattus norvegicus [20]): 0.6 mm; Activity [21]: 0; viability at 10 µM (Splenocyte [22]): 87.4%; inhibition in vivo at 10 mg/kg (Rattus norvegicus [23]): 69%; Time (Mus musculus [24]): 5.46 s; Activity (Mus musculus [25]): 64.3%; Activity (Mus musculus [26]): 52%; inhibition in vivo at 10 mg/kg (Rattus norvegicus [27]): 89%; Activity (Mus musculus [28]): 35.9%; Time (Mus musculus [29]): 4.16 s; inhibition in vivo at 10 mg/kg (Rattus norvegicus [30]): 102%; inhibition in vivo at 10 mg/kg (Rattus norvegicus [31]): 77%; IC50 (A549): 32.4 µM; Activity [32]: 0%
0.5 µg/mL and 0.711 µM	0.25 µg/mL and 0.355 µM	0.125 µg/mL and 0.178 µM	11.3	COc1cc(/C=C/C(=O)/C=C(O)/C=C/c2ccc(OC(=O)[C@@H](N)CCSC)c(OC)c2)ccc1OC(=O)[C@@H](N)CCSC.Cl.Cl	70	27.2	1.49	83.1	0	16.95	0.49	0.53	Non-Toxic	0.04	5.02	35.8	0.86	4.28	37.94	5.2	MIC (Pseudomonas aeruginosa): 0.5 µg/mL and 0.711 µM; Activity (Mus musculus [17]): 151%; inhibition in vivo at 10 mg/kg (Rattus norvegicus [18]): 36%; Activity [19]: 0; IC50 (PC-3): 42.6 µM; MIC (Candida albicans): 0.5 µg/mL and 0.711 µM; Activity (Rattus norvegicus [20]): 0.62 mm; Activity [21]: 0; viability at 10 µM (Splenocyte [22]): 81.3%; inhibition in vivo at 10 mg/kg (Rattus norvegicus [23]): 64%; Time (Mus musculus [24]): 5.28 s; Activity (Mus musculus [25]): 58.1%; Activity (Mus musculus [26]): 46.8%; inhibition in vivo at 10 mg/kg (Rattus norvegicus [27]): 97%; Activity (Mus musculus [28]): 63.4%; Time (Mus musculus [29]): 4.98 s; inhibition in vivo at 10 mg/kg (Rattus norvegicus [30]): 111%; inhibition in vivo at 10 mg/kg (Rattus norvegicus [31]): 73%; IC50 (A549): 32.8 µM; Activity [32]: 0%
